Data on 34 molecules can be found in patent US9247759B2, “Identification of human T2R receptors that respond to bitter compounds that elicit the bitter taste in compositions, and the use thereof in assays to identify compounds that inhibit (block) bitter taste in compositions and use thereof” (SENOMYX, INC., priority 2007, dated 2016).

Sequence of hT2R8 (Q9NYW2 whole entry): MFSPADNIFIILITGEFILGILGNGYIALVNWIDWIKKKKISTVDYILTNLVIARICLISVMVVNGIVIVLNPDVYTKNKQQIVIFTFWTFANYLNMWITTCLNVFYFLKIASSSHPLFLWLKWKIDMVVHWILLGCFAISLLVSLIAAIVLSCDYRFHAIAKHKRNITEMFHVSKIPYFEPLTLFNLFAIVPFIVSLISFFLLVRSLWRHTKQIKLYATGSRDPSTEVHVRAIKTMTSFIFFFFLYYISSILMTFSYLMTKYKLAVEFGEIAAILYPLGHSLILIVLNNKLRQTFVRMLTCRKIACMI
Sequence of hT2R14 (Q9NYV8 whole entry): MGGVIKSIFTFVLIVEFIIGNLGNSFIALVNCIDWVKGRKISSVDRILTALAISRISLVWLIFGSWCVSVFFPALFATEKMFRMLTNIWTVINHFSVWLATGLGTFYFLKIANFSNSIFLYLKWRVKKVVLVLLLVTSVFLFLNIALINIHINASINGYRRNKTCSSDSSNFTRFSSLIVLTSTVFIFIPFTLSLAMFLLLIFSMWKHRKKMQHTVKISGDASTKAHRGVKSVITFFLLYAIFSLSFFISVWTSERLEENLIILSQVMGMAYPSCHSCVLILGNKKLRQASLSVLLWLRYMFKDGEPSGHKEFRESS

The first test addresses hT2R8 (Homo sapiens (Human), UniProt Q9NYW2). Briefly: hT2R8 antagonist high-throughput FLIPR assay, stable cell line with G16g44, agonist andrographolide. It counts as cell-based. Conditions: read-out: IC50 on hT2R8 bitter receptor. The gist of the method:
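Antagonist screen: compounds co-applied with agonist andrographolide at 200 μM, a dose giving 70–80% of maximal hT2R8 activation. Fluorescence measured by FLIPR in a stable HEK293 line expressing both hT2R8 and the promiscuous G16g44 protein.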
On to `Cc1noc(C)c1Cn1cc(N2C(=O)NC(CCCc3ccccc3)C2=O)cn1` (stereo not drawn) [Example 10-46, 3-(1-((3,5-dimethylisoxazol-4-yl)methyl)-1H-pyrazol-4-yl)-5-(3-phenylpropyl)imidazolidine-2,4-dione], for which the half-inhibitory concentration (IC50) was determined as 170 nM.

On to `Cc1noc(C)c1Cn1cc(N2C(=O)C(Cc3ccccc3)N(C)C2=O)cn1` (stereo not drawn) [Example 10-42, 5-benzyl-3-(1-((3,5-dimethylisoxazol-4-yl)methyl)-1H-pyrazol-4-yl)-1-methylimidazolidine-2,4-dione], for which the half-inhibitory concentration (IC50) came to 150 nM.

As for `Cc1noc(C)c1Cn1cc(NC(=O)C2(c3ccccc3)CC2)cn1` [Example 4-11, N-(1-((3,5-dimethylisoxazol-4-yl)methyl)-1H-pyrazol-4-yl)-1-phenylcyclopropanecarboxamide], the IC50 was found to be 250 nM.

The test is the same for the next values; noted with them: table after Example 10-97; read-out: hT2R8 IC50.
For the molecule `Cc1noc(C)c1Cn1cc(N2C(=O)NC(CCCc3ccccc3)C2=O)cn1` (stereo not drawn) [Example 10-46, 3-(1-((3,5-dimethylisoxazol-4-yl)methyl)-1H-pyrazol-4-yl)-5-(3-phenylpropyl)imidazolidine-2,4-dione], the concentration for half-maximal inhibition (IC50) was found to be 484 nM.

On to `Cc1noc(C)c1Cn1cc(N2C(=O)C(Cc3ccccc3)N(C)C2=O)cn1` (stereo not drawn) [Example 10-42, 5-benzyl-3-(1-((3,5-dimethylisoxazol-4-yl)methyl)-1H-pyrazol-4-yl)-1-methylimidazolidine-2,4-dione], for which the IC50 is 17 nM.

Still in this test, the particulars now being: table after Example 12-37; read-out: hT2R8 IC50.
For `Cc1noc(C)c1Cn1cc(N2C(=O)N(CCc3ccccc3F)C(C)(C)C2=O)cn1` [Example 12-53, 3-(1-((3,5-dimethylisoxazol-4-yl)methyl)-1H-pyrazol-4-yl)-1-(2-fluorophenethyl)-5,5-dimethylimidazolidine-2,4-dione], the 50% inhibitory concentration (IC50) turned out to be 200 nM.

The next test has as its target hT2R14 (Homo sapiens (Human), UniProt Q9NYV8). Briefly: hT2R14 antagonist high-throughput FLIPR assay, stable cell line with G16g44, agonist aristolochic acid. The class given is cell-based. The note with it: Table B; read-out: hT2R14 IC50. As to the method: The inventors also used the automated fluorimetric […] system FLIPR using a slightly different protocol. A HEK293 cell line stably expressing G16gust44 was transfected with a hT2R expression plasmid, 24 hours later, the cells are loaded and analyzed on FLIPR.
After a ligand is identified for a particular hT2R, a HEK293 cell line stably expressing both the hT2R and G16gust44 are generated, facilitating future screening assays to identify other ligands that activate the particular hT2R or which modulate (block or enhance) the activation of this hT2R by another bitter ligand such as a bitter compound contained in coffee. This avoids the need for transient transfection.
To identify antagonists, cell lines stably expressing hT2R8 and hT2R14, respectively, together with the promiscuous chimeric G16g44 protein were generated as described in previous patent applications. A high-throughput assay was established using the stable cell lines and FLIPR (Fluorescent Imaging Plate Reader). An agonist of hT2R8 or hT2R14 was used to activate the receptors up to 70-80% of their respective maximal activity. For hT2R8, the agonist used was andrographolide (200 […]); for hT2R14, it was aristolochic acid (3 μM). To identify antagonists, compounds with diverse chemical structures were added together with the agonist.
In the case of `CC(C)CN(CC(C)C)S(=O)(=O)c1ccc(C(=O)O)cc1` [Compound 5-9, 4-(N,N-diisobutylsulfamoyl)benzoic acid], the concentration for half-maximal inhibition (IC50) is 15000 nM.

Staying with this test, now noted: Table C; read-out: hT2R14 IC50.
In the case of `O=C(O)c1ccc(S(=O)(=O)N(Cc2ccccc2)Cc2ccc(Cl)cc2)cc1` [Example 5-137, 4-(N-benzyl-N-(4-chlorobenzyl)sulfamoyl)benzoic acid], the half-inhibitory concentration (IC50) is 3980 nM.

With `COc1ccc(CN(Cc2ccccc2)S(=O)(=O)c2ccc(C(=O)O)cc2)cc1C` [Example 5-144, 4-(N-benzyl-N-(4-methoxy-3-methylbenzyl)sulfamoyl)benzoic acid], the IC50 was 2000 nM.

Consider `COc1ccc(CN(Cc2ccccc2Cl)S(=O)(=O)c2ccc(C(=O)O)cc2)cc1` [Example 5-130, 4-(N-(2-chlorobenzyl)-N-(4-methoxybenzyl)sulfamoyl)benzoic acid], for which the IC50 turned out to be 7040 nM.

On to `O=C(O)c1ccc(S(=O)(=O)N(Cc2ccccc2)Cc2cccc(Cl)c2)cc1` [Example 5-142, 4-(N-benzyl-N-(3-chlorobenzyl)sulfamoyl)benzoic acid], for which the IC50 is 4290 nM.

`O=C(O)c1ccc(S(=O)(=O)N(Cc2ccccc2)Cc2cccc(F)c2)cc1` [Example 5-139, 4-(N-benzyl-N-(3-fluorobenzyl)sulfamoyl)benzoic acid]: the IC50 was 2310 nM.

Consider `COc1cccc(CN(CC2CCC(C(=O)O)CC2)S(=O)(=O)c2ccc(C)cc2)c1` (stereo not drawn) [Example 5-128, 4-((N-(3-methoxybenzyl)-4-methylphenylsulfonamido)methyl) cyclohexanecarboxylic acid], for which the half-inhibitory concentration (IC50) stood at 36 nM.

For `CCOC(=O)C1CCC(CN(Cc2ccccc2)S(=O)(=O)c2ccc(Br)cc2)CC1` (stereo not drawn) [Example 5-118, ethyl 4-((N-benzyl-4-bromophenylsulfonamido)methyl) cyclohexanecarboxylate], the half-inhibitory concentration (IC50) stood at 2340 nM.

As for `CCOC(=O)C1CCC(CN(Cc2ccccc2)S(=O)(=O)c2ccc(Cl)cc2)CC1` (stereo not drawn) [Example 5-119, ethyl 4-((N-benzyl-4-chlorophenylsulfonamido)methyl) cyclohexanecarboxylate], the 50% inhibitory concentration (IC50) was 672 nM.

For `COc1ccc(CN(Cc2ccccc2C)S(=O)(=O)c2ccc(C(=O)O)cc2)cc1` [Example 5-129, 4-(N-(4-methoxybenzyl)-N-(2-methylbenzyl)sulfamoyl)benzoic acid], the IC50 came to 5320 nM.

On to `COc1cccc(CN(Cc2ccccc2)S(=O)(=O)c2ccc(C(=O)O)cc2)c1` [Example 5-136, 4-(N-benzyl-N-(3-methoxybenzyl)sulfamoyl)benzoic acid], for which the concentration for half-maximal inhibition (IC50) amounted to 5990 nM.

Regarding `COc1ccc2c(c1)C(c1ccccc1)N(S(=O)(=O)c1ccc(C(=O)O)cc1)CC2` (stereo not drawn) [Example 5-163, 4-(7-methoxy-1-phenyl-3,4-dihydroisoquinolin-2(1H)-ylsulfonyl)benzoic acid], the IC50 came out at 2880 nM.

In the case of `COc1ccc(S(=O)(=O)N(Cc2ccc(F)cc2)CC2CCC(C(=O)O)CC2)cc1` (stereo not drawn) [Example 5-123, 4-((N-(4-fluorobenzyl)-4-methoxyphenylsulfonamido)methyl) cyclohexanecarboxylic acid], the IC50 is 92 nM.

For the molecule `Cc1cc(NC(=S)N(Cc2ccccc2C)CC2CCC(C(=O)O)CC2)ccc1Cl` (stereo not drawn) [Example 5-114, 4-((3-(4-chloro-3-methylphenyl)-1-(2-methylbenzyl)thioureido)methyl) cyclohexanecarboxylic acid], the half-maximal inhibitory concentration (IC50) came to 4870 nM.

On to `COc1ccc(CN(Cc2ccc(F)cc2F)S(=O)(=O)c2ccc(C(=O)O)cc2)cc1` [Example 5-160, 4-(N-(2,4-difluorobenzyl)-N-(4-methoxybenzyl)sulfamoyl)benzoic acid], for which the half-inhibitory concentration (IC50) amounted to 1260 nM.

Turning to `CCOC(=O)C1CCC(CN(Cc2cccc(Br)c2)S(=O)(=O)c2ccc3c(c2)OCCO3)CC1` (stereo not drawn) [Example 5-116, ethyl 4-((N-(3-bromobenzyl)-2,3-dihydrobenzo[b][1,4]dioxine-6-sulfonamido)methyl) cyclohexanecarboxylate], the IC50 was determined as 2570 nM.

Take `O=C(O)c1ccc(S(=O)(=O)N(Cc2ccccc2)Cc2ccccc2Cl)cc1` [Example 5-141, 4-(N-benzyl-N-(2-chlorobenzyl)sulfamoyl)benzoic acid]: the IC50 turned out to be 4490 nM.

As for `Cc1ccc(CN(Cc2ccccc2)S(=O)(=O)c2ccc(C(=O)O)cc2)cc1` [Example 5-132, 4-(N-benzyl-N-(4-methylbenzyl)sulfamoyl)benzoic acid], the IC50 came to 5390 nM.

Regarding `COc1ccc(CN(CC2CCC(C(=O)O)CC2)C(=S)Nc2ccc(C)c(Cl)c2)cc1` (stereo not drawn) [Example 5-111, 4-((3-(3-chloro-4-methylphenyl)-1-(4-methoxybenzyl)thioureido)methyl) cyclohexanecarboxylic acid], the concentration for half-maximal inhibition (IC50) came to 6140 nM.

With `O=C(O)c1ccc(S(=O)(=O)N(Cc2ccccc2)Cc2ccc3c(c2)OCO3)cc1` [Example 5-148, 4-(N-(benzo[d][1,3]dioxol-5-ylmethyl)-N-benzylsulfamoyl)benzoic acid], the IC50 came out at 2170 nM.

Regarding `COc1ccc(CN(CC2CCC(C(=O)O)CC2)C(=S)Nc2ccccc2OC)cc1` (stereo not drawn) [Example 5-112, 4-((1-(4-methoxybenzyl)-3-(2-methoxyphenyl)thioureido)methyl) cyclohexanecarboxylic acid], the half-inhibitory concentration (IC50) is 8850 nM.

The same test, now with this note: Table D; read-out: hT2R14 IC50.
On to `CCOC(=O)N1CCN(C(=O)CSc2nc(CC)nc3c2c(=O)n(C)c(=O)n3C)CC1` [Example 6-27, ethyl 4-(2-(2-ethyl-6,8-dimethyl-5,7-dioxo-5,6,7,8-tetrahydropyrimido[4,5-d]pyrimidin-4-ylthio)acetyl)piperazine-1-carboxylate], for which the IC50 was determined as 763 nM.

Take `Cn1c(=O)c2cc(S(=O)(=O)NC3CCCCC3)ccc2n(C)c1=O` [Example 6-16, N-cyclohexyl-1,3-dimethyl-2,4-dioxo-1,2,3,4-tetrahydroquinazoline-6-sulfonamide]: the half-inhibitory concentration (IC50) was 7240 nM.

`Cc1nc2ccc(NS(=O)(=O)c3ccc4c(c3)n(C)c(=O)c(=O)n4C)cc2nc1C` [Example 6-19, N-(2,3-dimethylquinoxalin-6-yl)-1,4-dimethyl-2,3-dioxo-1,2,3,4-tetrahydroquinoxaline-6-sulfonamide]: the IC50 came out at 6330 nM.

As to `CCc1nc(SCC(=O)N2CCC(C)CC2)c2c(=O)n(C)c(=O)n(C)c2n1` [Example 6-26, 7-ethyl-1,3-dimethyl-5-(2-(4-methylpiperidin-1-yl)-2-oxoethylthio)pyrimido[4,5-d]pyrimidine-2,4(1H,3H)-dione], the IC50 is 721 nM.

With `Cc1cc(C)c(C#N)c(NS(=O)(=O)c2ccc3c(c2)c(=O)n(C)c(=O)n3C)c1` [Example 6-17, N-(2-cyano-3,5-dimethylphenyl)-1,3-dimethyl-2,4-dioxo-1,2,3,4-tetrahydroquinazoline-6-sulfonamide], the IC50 is 1950 nM.

Consider `COc1cc(OC)c(/C=C2\SC(=S)N(CCC(=O)O)C2=O)c(OC)c1` [Example 6-12, (Z)-3-(4-oxo-2-thioxo-5-(2,4,6-trimethoxybenzylidene)thiazolidin-3-yl)propanoic acid], for which the 50% inhibitory concentration (IC50) was 9370 nM.

`COc1cc(/C=C2\SC(=S)N(CCC(=O)O)C2=O)cc(OC)c1` [Example 6-13, (Z)-3-(5-(3,5-dimethoxybenzylidene)-4-oxo-2-thioxothiazolidin-3-yl)propanoic acid]: the IC50 was found to be 5380 nM.

For the molecule `N#C/C(=C\c1ccc2c(c1)OCO2)C(=O)Nc1nnc(-c2ccccc2)s1` [Example 6-14, (E)-3-(benzo[d][1,3]dioxol-5-yl)-2-cyano-N-(5-phenyl-1,3,4-thiadiazol-2-yl)acrylamide], the IC50 came to 2910 nM.

With `Cn1c(=O)c2cc(S(=O)(=O)Nc3ccc(Cl)cc3F)ccc2n(C)c1=O` [Example 6-23, N-(4-chloro-2-fluorophenyl)-1,3-dimethyl-2,4-dioxo-1,2,3,4-tetrahydroquinazoline-6-sulfonamide], the half-maximal inhibitory concentration (IC50) was 9700 nM.
